Test results published in ChEMBL document CHEMBL1201862, “PubChem BioAssay data set” (2004).
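Compound exposure: 48 hours, 5 concentrations, 96-well plates. GI50 marks 50% less growth.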 Active and inactive are the calls of the source. Rule as the data show it: active = GI50 up to about 1.1 µM and inactive = higher.

Assays:
Assay in all cases: inhibition of tumour cell growth, NCI panel, 48 h
[1] = system: ACHN
[2] = system: HCC 2998
[3] = system: HCT-116
[4] = system: HCT-15
[5] = system: HOP-92
[6] = system: HT-29
[7] = system: Hs-578T
[8] = system: LOX IMVI
[9] = system: Malme-3M
[10] = system: NCI-H23
[11] = system: OVCAR-8
[12] = system: RXF 393
[13] = system: SF-295
[14] = system: SK-MEL-28
[15] = system: SR
[16] = system: SW-620
[17] = system: T47D
[18] = system: CCRF-CEM
[19] = system: COLO 205
[20] = system: HL-60

| Structure (SMILES) | GI50 [1] | GI50 [2] | GI50 [3] | GI50 [4] [µM] | GI50 [5] | GI50 [6] | GI50 [7] | GI50 [8] | GI50 [9] | GI50 [10] | GI50 [11] | GI50 [12] | GI50 [13] | GI50 [14] | GI50 [15] | GI50 [16] | GI50 [17] | GI50 [18] | GI50 [19] | GI50 [20] |
| --- | --- | --- | --- | --- | --- | --- | --- | --- | --- | --- | --- | --- | --- | --- | --- | --- | --- | --- | --- | --- |
| O=C(N/N=C\c1cccc(O)c1)c1ccncc1 | > 100 µM (inactive) | > 100 µM (inactive) | > 100 µM (inactive) | > 100 | > 100 µM (inactive) | > 100 µM (inactive) | > 100 µM (inactive) | > 100 µM (inactive) | > 100 µM (inactive) | > 100 µM (inactive) | > 100 µM (inactive) | > 100 µM (inactive) | > 100 µM (inactive) | > 100 µM (inactive) | > 100 µM (inactive) | > 100 µM (inactive) | > 100 µM (inactive) | – | – | – |
| COc1ccc(N2C(=O)/C(=C\c3ccccc3)SC2c2cc(OC)c(OC)c(OC)c2)cc1 (stereo unspecified) | 60.3 µM (inactive) | > 100 µM (inactive) | 32.1 µM (inactive) | > 100 | > 100 µM (inactive) | 96.6 µM (inactive) | 84.5 µM (inactive) | 56.9 µM (inactive) | > 100 µM (inactive) | 92.7 µM (inactive) | > 100 µM (inactive) | 31.3 µM (inactive) | > 100 µM (inactive) | > 100 µM (inactive) | 29.9 µM (inactive) | – | 20.1 µM (inactive) | 10.7 µM (inactive) | 74.1 µM (inactive) | – |
| CCOC(=O)c1cc2c(ccc3cc(C(=O)OCC)[nH]c32)[nH]1 | 55.5 µM (inactive) | 99.8 µM (inactive) | 41.9 µM (inactive) | 33.3 | 78.7 µM (inactive) | – | 17.2 µM (inactive) | 25.6 µM (inactive) | 43.3 µM (inactive) | 27.2 µM (inactive) | – | 15.8 µM (inactive) | 60.7 µM (inactive) | 8.36 µM (inactive) | 17.5 µM (inactive) | 25.8 µM (inactive) | 38 µM (inactive) | 27.8 µM (inactive) | 65.3 µM (inactive) | > 10 µM (inactive) |
| CCN(CC)C(=S)SS(=O)(=O)c1cccc(N)c1 | > 100 µM (inactive) | > 100 µM (inactive) | > 100 µM (inactive) | > 100 | > 100 µM (inactive) | > 100 µM (inactive) | > 100 µM (inactive) | > 100 µM (inactive) | > 100 µM (inactive) | > 100 µM (inactive) | > 100 µM (inactive) | > 100 µM (inactive) | > 100 µM (inactive) | > 100 µM (inactive) | > 100 µM (inactive) | > 100 µM (inactive) | > 100 µM (inactive) | – | > 100 µM (inactive) | – |
| COc1c(O)cc2c(c1O)C(=O)/C(=C/c1ccc(O)cc1)CO2 | 19.8 µM (inactive) | – | – | 14.8 | 36.1 µM (inactive) | 20.1 µM (inactive) | 30.2 µM (inactive) | 21.7 µM (inactive) | 30.2 µM (inactive) | 26.8 µM (inactive) | 17.9 µM (inactive) | 33.7 µM (inactive) | 37.7 µM (inactive) | 17.7 µM (inactive) | 13.5 µM (inactive) | 26.7 µM (inactive) | 30.8 µM (inactive) | 18.1 µM (inactive) | 17.6 µM (inactive) | 30.1 µM (inactive) |
| Cc1ccc(NC=O)c(-c2c(N)[nH]c(=S)[nH]c2=O)c1 | 60.7 µM (inactive) | – | > 100 µM (inactive) | > 100 | > 100 µM (inactive) | > 100 µM (inactive) | > 100 µM (inactive) | > 100 µM (inactive) | > 100 µM (inactive) | > 100 µM (inactive) | > 100 µM (inactive) | > 100 µM (inactive) | > 100 µM (inactive) | – | > 100 µM (inactive) | > 100 µM (inactive) | > 100 µM (inactive) | > 100 µM (inactive) | > 100 µM (inactive) | > 100 µM (inactive) |
| CCCCN1C(=O)CS/C1=N/Nc1nc2c([nH]1)c(=O)n(C)c(=O)n2C | > 100 µM (inactive) | > 100 µM (inactive) | 15.2 µM (inactive) | > 100 | 43.1 µM (inactive) | 23.9 µM (inactive) | 45.4 µM (inactive) | – | 38.8 µM (inactive) | > 100 µM (inactive) | – | > 100 µM (inactive) | 7.35 µM (inactive) | 20 µM (inactive) | 11.9 µM (inactive) | – | 34.2 µM (inactive) | 22.2 µM (inactive) | > 100 µM (inactive) | > 100 µM (inactive) |
| COC(=O)C1=C(O)C(C(=O)OC)C2CC(=O)CC1C2(C)C (stereo unspecified) | > 100 µM (inactive) | > 100 µM (inactive) | > 100 µM (inactive) | > 100 | > 100 µM (inactive) | > 100 µM (inactive) | 11.2 µM (inactive) | – | > 100 µM (inactive) | > 100 µM (inactive) | > 100 µM (inactive) | > 100 µM (inactive) | > 100 µM (inactive) | > 100 µM (inactive) | > 100 µM (inactive) | > 100 µM (inactive) | > 100 µM (inactive) | > 100 µM (inactive) | > 100 µM (inactive) | > 100 µM (inactive) |
| CCOC(=O)c1nc2ccccc2nc1Oc1ccc(OC)cc1 | > 100 µM (inactive) | – | > 100 µM (inactive) | > 100 | > 100 µM (inactive) | > 100 µM (inactive) | > 100 µM (inactive) | > 100 µM (inactive) | > 100 µM (inactive) | – | > 100 µM (inactive) | > 100 µM (inactive) | > 100 µM (inactive) | > 100 µM (inactive) | > 100 µM (inactive) | > 100 µM (inactive) | > 100 µM (inactive) | > 100 µM (inactive) | > 100 µM (inactive) | > 100 µM (inactive) |
| O=C1CCSSCCC(=O)NCCN1 | > 100 µM (inactive) | – | > 100 µM (inactive) | > 100 | > 100 µM (inactive) | > 100 µM (inactive) | > 100 µM (inactive) | > 100 µM (inactive) | > 100 µM (inactive) | > 100 µM (inactive) | > 100 µM (inactive) | > 100 µM (inactive) | > 100 µM (inactive) | > 100 µM (inactive) | 91.2 µM (inactive) | > 100 µM (inactive) | > 100 µM (inactive) | > 100 µM (inactive) | > 100 µM (inactive) | > 100 µM (inactive) |
| COC(=O)C1Cc2c(OC)ccc(OC)c2C(O)C1C(=O)OC (stereo unspecified) | > 100 µM (inactive) | – | > 100 µM (inactive) | – | > 100 µM (inactive) | > 100 µM (inactive) | > 100 µM (inactive) | > 100 µM (inactive) | > 100 µM (inactive) | > 100 µM (inactive) | > 100 µM (inactive) | > 100 µM (inactive) | > 100 µM (inactive) | > 100 µM (inactive) | > 100 µM (inactive) | > 100 µM (inactive) | > 100 µM (inactive) | > 100 µM (inactive) | > 100 µM (inactive) | > 100 µM (inactive) |
| COc1ccc(CC2COc3cc(OC)cc(OC)c3C2=O)cc1 (stereo unspecified) | 46.8 µM (inactive) | – | 15.3 µM (inactive) | 9.51 | 25.9 µM (inactive) | 17.6 µM (inactive) | 17.5 µM (inactive) | 34.5 µM (inactive) | 15.3 µM (inactive) | 23.6 µM (inactive) | 26.1 µM (inactive) | 26.8 µM (inactive) | 17.5 µM (inactive) | 20.7 µM (inactive) | 4.57 µM (inactive) | 29.8 µM (inactive) | 16.7 µM (inactive) | – | 14.8 µM (inactive) | 13.2 µM (inactive) |
